Measurements as given in patent US9345669B2, “Biodegradable natural films based on co-products derived from industrial-scale seed-treatment processes” (Sojasun Technologies, priority 2011, dated 2016).

Assay: Diffusion of isoflavones from films into an agar plate (gelose) matrix simulating the vaginal mucous membrane
Format: physicochemical
Description: FIG. 1 is a flowchart pertaining to the protocol for evaluating the diffusion of isoflavones made out of films according to the invention towards a matrix simulating the vaginal mucous membrane;
The films according to the present invention meeting the formulations 1 to 6 described here above were associated with an extract obtained from soybeans. The extract is incorporated directly into the mixture so that its content is 4.2% by mass. This extract has the particular feature of being rich in isoflavones and especially having high daidzin and genistin content.
The tests explained here below show the possible use of films according to the invention for making products for administering active ingredients by diffusion of these ingredients from the film towards the vaginal mucous membrane.
In these tests, in order to model the vaginal mucous membrane, an agar plate with an Agar concentration of 30 g/l was used.
The diffusion of daidzin and genistin in the lower agar plate and the upper agar plate was studied with films complying with the formulations 1, 2 and 3 described here above. The results of this study are indicated in the two graphs of FIG. 2.
The influence of the proportion by weight of film-forming agent (sodium caseinate (NaCAS)) in films according to the invention meeting the formulations 5, 2 and 4 described here above on the diffusion of daidzin (a) and genistin (b) has also been studied. The results of this study are indicated in the two graphs shown in FIG. 3 in which the concentration in isoflavones diffused has been related in terms of percentage to the case where the entire active ingredient would have been diffused.
The hydrophobic agent chosen for this study is soy lecithin. A suspension of this compound was also prepared using 5 g of soy lecithin powder mixed with 10 mL of ultra-pure water. The films complying with the formulations 1 and 2 were then coated with this suspension (on the upper and lower faces) and then placed on gelose in order to carry out migration tests.
Two rates of plasticization were examined, corresponding to the formulations 4 and 5 of the films according to the invention described here above.

## Daidzin
Films of formulations 1, 2 and 3 with 4.2% soybean extract, agar 30 g/l (FIG. 2)
  concentration in gelose under equilibrium: about 10 μg/mL
Films of formulations 5, 2 and 4 (varied proportion of sodium caseinate), % of total active ingredient (FIG. 3)
  isoflavone diffused towards the gelose after 24 hours of contact: more than 90%
Formulations 1 and 2 coated with soy lecithin on upper and lower faces (FIG. 4)
  isoflavone diffused in the gelose after 48 hours of contact, with soy lecithin coating: 40%
Plasticization rate 20% glycerol (FIG. 5)
  isoflavone diffused after 30 hours, plasticization rate 20%: 90%
Plasticization rate 30% glycerol (FIG. 5)
  isoflavone diffused after 30 hours, glycerol rate 30% by mass: ~100%
